Laboratory results published in the supplement of paper PMC13380429.

Experiments:
Details in all cases: 72 h
[1] = tested on: Caco-2; experiment: cell viability relative to DMSO; higher = less toxic
[2] = tested on: Calu-3; experiment: as above
[3] = tested on: HepG2; experiment: as above
[4] = tested on: U2OS; experiment: as above
[5] = tested on: Vero E6; experiment: as above
[6] = tested on: Caco-2; experiment: relative viability EC50 (midpoint between 100% and the lowest measured viability); higher = less toxic
[7] = tested on: Calu-3; experiment: as above
[8] = tested on: HepG2; experiment: as above
[9] = tested on: U2OS; experiment: as above
[10] = tested on: Vero E6; experiment: as above
[11] = tested on: Caco-2; experiment: drug sensitivity score (DSS) for viability; higher = more toxic; extreme values may be limits of the assay
[12] = tested on: Calu-3; experiment: as above
[13] = tested on: HepG2; experiment: as above
[14] = tested on: U2OS; experiment: as above
[15] = tested on: Vero E6; experiment: as above

SMILES | cell viability ([1]; 1 nM) | cell viability ([1]; 10 nM) | cell viability ([1]; 100 nM) | cell viability ([1]; 1000 nM) | cell viability ([1]; 10000 nM) | cell viability ([2]; 1 nM) | cell viability ([2]; 10 nM) | cell viability ([2]; 100 nM) | cell viability ([2]; 1000 nM) | cell viability ([2]; 10000 nM) | cell viability ([3]; 1 nM) | cell viability ([3]; 10 nM) | cell viability ([3]; 100 nM) | cell viability ([3]; 1000 nM) | cell viability ([3]; 10000 nM) | cell viability ([4]; 1 nM) | cell viability ([4]; 10 nM) | cell viability ([4]; 100 nM) | cell viability ([4]; 1000 nM) | cell viability ([4]; 10000 nM) | cell viability ([5]; 1 nM) | cell viability ([5]; 10 nM) | cell viability ([5]; 100 nM) | cell viability ([5]; 1000 nM) | cell viability ([5]; 10000 nM) | relative viability EC50 [6] | relative viability EC50 [7] | relative viability EC50 [8] | relative viability EC50 [9] | relative viability EC50 [10] | drug sensitivity score [11] | drug sensitivity score [12] | drug sensitivity score [13] | drug sensitivity score [14] | drug sensitivity score [15]
Cc1ccc2c(c1)c1c3n2CCNC3CCC1 (stereo not given) [pirlindole] | 90.9% | 101% | 97.9% | 101% | 104% | 98.1% | 100% | 98% | 102% | 99.1% | 100% | 98% | 99.9% | 102% | 82.4% | 100% | 102% | 96.9% | 103% | 102% | 97.7% | 100% | 97.6% | 101% | 101% | > 10 µM | > 10 µM | > 10 µM | > 10 µM | > 10 µM | 0 | 0 | 0.3 | 0 | 0
CCCNC(C)C(=O)Nc1ccccc1C (stereo not given) [prilocaine] | 95.1% | 100% | 99.1% | 102% | 97.3% | 89% | 102% | 95.5% | 94% | 101% | 113% | 91.9% | 102% | 96.2% | 98.8% | 100% | 108% | 99.3% | 105% | 96.9% | 101% | 98.9% | 92.2% | 99.8% | 96.9% | > 10 µM | > 10 µM | > 10 µM | > 10 µM | > 10 µM | 0 | 0 | 0 | 0 | 0
O=C(NCCN1CCN(c2ncccn2)CC1)C12CC3CC(CC(C3)C1)C2 [adatanserin] | 92% | 114% | 94.7% | 102% | 88.5% | 101% | 96.5% | 107% | 86.8% | 101% | 102% | 98% | 88.5% | 90.7% | 90.9% | 94.9% | 94.2% | 97.8% | 96.9% | 97.4% | 99.5% | 97.9% | 101% | 99.4% | 104% | > 10 µM | > 10 µM | > 10 µM | > 10 µM | > 10 µM | 0 | 0 | 0.9 | 0 | 0
OC(c1ccccc1)(c1ccccc1)C1CCNCC1 [azacyclonol] | 93.6% | 102% | 97% | 102% | 93.6% | 88.6% | 99.5% | 90% | 97% | 101% | 116% | 91.6% | 101% | 97.8% | 93% | 102% | 99.2% | 98.5% | 102% | 97.1% | 105% | 100% | 102% | 99.9% | 99.9% | > 10 µM | > 10 µM | > 10 µM | > 10 µM | > 10 µM | 0 | 0 | 0 | 0 | 0
CN1Cc2c(C(=O)OC(C)(C)C)ncn2-c2ccsc2C1=O [Ro-19-4605] | 98.8% | 102% | 101% | 100% | 103% | 96.9% | 98% | 89% | 103% | 99.3% | 105% | 96.9% | 115% | 96.6% | 108% | 94.5% | 92.8% | 95.4% | 102% | 97.2% | 101% | 96.4% | 103% | 96.8% | 103% | > 10 µM | > 10 µM | > 10 µM | > 10 µM | > 10 µM | 0 | 0 | 0 | 0 | 0
CN1C(=O)CC(c2ccccc2)C1=O (stereo not given) [phensuximide] | 99.3% | 102% | 97.2% | 90.9% | 103% | 100% | 108% | 107% | 99.1% | 103% | 108% | 110% | 96.4% | 98.3% | 98.9% | 96.2% | 99.8% | 100% | 98.3% | 106% | 104% | 103% | 99.5% | 103% | 98.3% | > 10 µM | > 10 µM | > 10 µM | > 10 µM | > 10 µM | 0 | 0 | 0 | 0 | 0
CN1CCN(C(=O)O[C@H]2c3nccnc3C(=O)N2c2ccc(Cl)cn2)CC1 [ESZOPICLONE] | 93.8% | 98.3% | 94.3% | 98.6% | 100% | 109% | 106% | 91.2% | 104% | 99.6% | 97.2% | 95.2% | 92.8% | 102% | 101% | 98.3% | 87.6% | 99.5% | 98.3% | 96.6% | 97.3% | 101% | 93.6% | 97.2% | 111% | > 10 µM | > 10 µM | > 10 µM | > 10 µM | > 10 µM | 0 | 0 | 0 | 0 | 0
O=C1NC(c2ccccc2)(c2ccccc2)C(=O)N1COP(=O)(O)O [fosphenytoin] | 97.6% | 102% | 86.3% | 104% | 105% | 89.4% | 97.3% | 90.4% | 87.7% | 102% | 97.1% | 92.7% | 100% | 109% | 91.4% | 98% | 98.5% | 101% | 95.1% | 102% | 110% | 84.9% | 102% | 106% | 94.6% | > 10 µM | > 10 µM | > 10 µM | > 10 µM | > 10 µM | 0 | 0 | 0 | 0 | 0
CC(=O)OCC(=O)[C@@]1(O)CC[C@H]2[C@@H]3CCC4=CC(=O)C=C[C@]4(C)[C@@]3(F)[C@@H](O)C[C@@]21C [isoflupredone-acetate] | 104% | 96.9% | 97% | 103% | 102% | 92.6% | 97.2% | 82.4% | 93.2% | 107% | 102% | 92.3% | 102% | 99.2% | 104% | 96.4% | 98.2% | 94.5% | 99.4% | 105% | 100% | 101% | 96% | 94.5% | 107% | > 10 µM | > 10 µM | > 10 µM | > 10 µM | > 10 µM | 0 | 0 | 0 | 0 | 0
NCCCS(=O)(=O)O [tramiprosate] | 86.1% | 94.8% | 97.7% | 98.1% | 93% | 98.5% | 95.1% | 95% | 96.8% | 98.7% | 108% | 97.4% | 106% | 108% | 109% | 94.6% | 99.2% | 101% | 103% | 94.7% | 95.2% | 95.8% | 100% | 99.7% | 106% | > 10 µM | > 10 µM | > 10 µM | > 10 µM | > 10 µM | 0 | 0 | 0 | 0 | 0
OCCN(CCO)c1nc(N2CCCCC2)c2nc(N(CCO)CCO)nc(N3CCCCC3)c2n1 [dipyridamole] | 114% | 98.9% | 102% | 96.2% | 87.1% | 99.1% | 103% | 112% | 96.4% | 104% | 94.2% | 101% | 96.6% | 100% | 96.7% | 103% | 99.2% | 101% | 102% | 99.8% | 104% | 90.1% | 108% | 95% | 95.3% | > 10 µM | > 10 µM | > 10 µM | > 10 µM | > 10 µM | 0.3 | 0 | 0 | 0 | 0
CC[C@]1(O)C[C@@H]2CN(CCc3c([nH]c4ccccc34)[C@@](C(=O)OC)(c3cc4c(cc3OC)N(C)[C@H]3[C@@](O)(C(=O)OC)[C@H](OC(C)=O)[C@]5(CC)C=CCN6CC[C@]43[C@@H]65)C2)C1 [Vinblastine (sulfate)] | 90.3% | 56.8% | 44.4% | 43.9% | 27.7% | 87.5% | 64.9% | 50.5% | 41.6% | 34.3% | 99.3% | 43.9% | 34.7% | 32.5% | 34.8% | 96.1% | 48.1% | 24.9% | 19.6% | 16.8% | 100% | 91.3% | 48.8% | 30.1% | 18.1% | 0.0105 µM | 0.0105 µM | 0.0053 µM | 0.0071 µM | 0.0688 µM | 24.1 | 22 | 27.8 | 31.8 | 20.6
OC[C@H]1O[C@@H](c2ccc(Cl)c(Cc3ccc(O[C@H]4CCOC4)cc3)c2)[C@H](O)[C@@H](O)[C@@H]1O [empagliflozin] | 95% | 97.3% | 102% | 94.7% | 104% | 87.9% | 110% | 114% | 98.7% | 101% | 99.4% | 109% | 91.9% | 109% | 117% | 98.6% | 92.3% | 103% | 96.7% | 96.4% | 90% | 103% | 95% | 94.9% | 106% | > 10 µM | > 10 µM | > 10 µM | > 10 µM | > 10 µM | 0 | 0 | 0 | 0 | 0
